Measurements published in article PMC6449286, “Influence of Multidrug Resistance-Associated Proteins on the Excretion of the ABCC1 Imaging Probe 6-Bromo-7-[^11C]Methylpurine in Mice” (Molecular Imaging and Biology, 2018).
Marks after values point to notes of the source that are not given here.

Experiments:
[1] = design: method as in PMID 1976057; conditions: rats ref 24; cited from earlier work
Abcc4 [2] = assay: 6-bromo-7-[^11C]methylpurine PET in Abcc4^(−/−) mice; assay type: in vivo; conditions: Abcc4^(−/−) vs wild-type mice
Method: (§1) Groups of wild-type, Abcc4^(−/−), Abcc1^(−/−), and Abcc1^(+/−) mice underwent a baseline PET scan with 6-bromo-7-[^11C]methylpurine at 30 min after i.p. injection of vehicle solution (PBS). […] In addition, groups of wild-type and Abcc1^(−/−) mice were used to determine the percentage of unchanged 6-bromo-7-[^11C]methylpurine in different tissues and fluids.
(§2) During all experimental procedures, animals were kept under isoflurane anesthesia. PET imaging was conducted on a microPET Focus220 scanner (Siemens Medical Solutions, Knoxville, TN, USA). […] Subsequently, 6-bromo-7-[^11C]methylpurine (29 ± 9 MBq in a volume of 0.1 ml, 0.17 ± 0.11 nmol) was administered as an i.v. bolus via the lateral tail vein, and a 90-min dynamic PET scan (energy window: 250–750 keV; timing window: 6 ns) was initiated at the start of radiotracer injection. […] Blood was centrifuged to obtain plasma and aliquots of blood and plasma were counted for radioactivity in a gamma counter (Wizard 1470; Perkin-Elmer, Waltham, MA, USA).
The PET data were sorted into 25 frames with a duration increasing from 5 s to 20 min. […] Using AMIDE software, brain, right lung, left kidney, urinary bladder, liver, duodenum, intestine, and gall bladder were manually outlined on the PET images to derive concentration-time curves expressed in units of standardized uptake value (SUV = (radioactivity per g/injected radioactivity) × body weight). […] From the log-transformed concentration-time curves in blood, brain, lung, kidney, and liver, the elimination rate constant (kelimination) of radioactivity was determined by linear regression analysis from 17.5 to 80 min after radiotracer injection. A graphical analysis method (integration plot) was used to estimate the rate constant for transfer of radioactivity from blood into different organs (brain, kidney, and liver, kuptake, ml/min/g tissue) using data measured from 0.3 to 3.5 min after radiotracer injection, as described in detail before. […]

[3] = Assessment of glutathione conjugation by radio-TLC in mouse tissues and fluids; conditions: for Percentage of S-(6-(7-[^11C]methylpurinyl))glutathione in bile / Percentage of S-(6-(7-[^11C]methylpurinyl))glutathione in brain / Percentage of S-(6-(7-[^11C]methylpurinyl))glutathione in kidney / Percentage of S-(6-(7-[^11C]methylpurinyl))glutathione in liver / Percentage of S-(6-(7-[^11C]methylpurinyl))glutathione in urine: 15 min after i.v. injection; for Percentage of S-(6-(7-[^11C]methylpurinyl))glutathione in plasma: 15 min after i.v. injection of 6-bromo-7-[^11C]methylpurine, n=3
Method: Assessment of Glutathione Conjugation
6-Bromo-7-[11C]methylpurine (26 ± 8 MBq in a volume of 0.1 ml, 0.15 ± 0.06 nmol) was administered i.v. to wild-type and Abcc1(-/-) mice (n = 3 per group) under isoflurane anesthesia.
After a period of 15 min, blood was collected from the retro-bulbar plexus and animals were euthanized. Brain, liver, kidneys, urine and bile were collected. Blood was centrifuged to obtain plasma and proteins were precipitated by the addition of acetonitrile (1 µl per µl plasma). Liver, kidneys and brain were homogenized using an Ultra Turrax T10 (IKA Laboratory Equipment, Staufen, Germany) and proteins were precipitated with acetonitrile (1 ml per liver, 0.2 ml per kidneys/brain). Urine and bile were diluted with acetonitrile (1 µl per µl urine and bile). All solutions were vortexed and then centrifuged (12,000 x g, 1 min, 21°C). Each supernatant (plasma, brain, liver, kidney, urine, bile, 5 µl each) and diluted radiotracer solution as reference were spotted on silica gel 60F 254 nm TLC plates (10 x 20 cm; Merck, Darmstadt, Germany) and plates were developed in water/acetonitrile/acetic acid (92/8/1, v/v/v). Detection was performed by placing the TLC plates on multisensitive phosphor screens (Perkin-Elmer). […]

Abcc1 [4] = biological target: T1, Abcc1 (Mus musculus, UniProt O35379); assay: 6-bromo-7-[^11C]methylpurine PET in Abcc1 knockout mice; assay type: in vivo
T1 construct: from tissue; host or cells: living C57BL/6J mice (wild-type versus Abcc1 knockout), obtained from the University of Oslo
Method: as §1, §2
(§3) The PET data were sorted into 25 frames with a duration increasing from 5 s to 20 min. Fourier re-binning of the three-dimensional sinograms followed by a two-dimensional filtered back-projection with a ramp filter resulting in a voxel size of 0.4 × 0.4 × 0.796 mm^3 was used to reconstruct the PET data. Using AMIDE software, brain, right lung, left kidney, urinary bladder, liver, duodenum, intestine, and gall bladder were manually outlined on the PET images to derive concentration-time curves expressed in units of standardized uptake value (SUV = (radioactivity per g/injected radioactivity) × body weight). In addition, the left ventricle of the heart was outlined to obtain an image-derived blood curve. For all organs, the area under the concentration-time curve (AUC) from 0 to 90 min after radiotracer injection was calculated using Prism 7 software (GraphPad Software, La Jolla, CA, USA) and organ-to-blood AUC ratios were calculated. From the log-transformed concentration-time curves in blood, brain, lung, kidney, and liver, the elimination rate constant (kelimination) of radioactivity was determined by linear regression analysis from 17.5 to 80 min after radiotracer injection. A graphical analysis method (integration plot) was used to estimate the rate constant for transfer of radioactivity from blood into different organs (brain, kidney, and liver, kuptake, ml/min/g tissue) using data measured from 0.3 to 3.5 min after radiotracer injection, as described in detail before. Moreover, the rate constant for tubular secretion of radioactivity (kurine, min^−1) was determined from 12.5 to 65 min after radiotracer injection using integration plot analysis.

[5] = Baseline 6-bromo-7-[^11C]methylpurine PET in vehicle-treated wild-type mice; assay type: in vivo
Method: as §1, §2, §3

Abcc1 [6] = biological target: T1, Abcc1; design: method as in PMID 23596979, PMID 18985052; conditions: cited from earlier work
ABCC4 [7] = tested on: ABCC4; design: method as in PMID 12695538, PMID 10760098; conditions: in vitro ref 20, 21; read-out: IC50 for inhibition of substrate transport by ABCC4; cited from earlier work
ABCC2 = tested on: ABCC2; design: method as in PMID 12695538, PMID 10760098; conditions: in vitro ref 20, 21; read-out: IC50 for inhibition of substrate transport by ABCC2; cited from earlier work
[8] = MK571 concentrations in plasma and kidneys (HPLC); assay type: in vivo, mice; conditions: mouse, intraperitoneal, 300 mg/kg
Method: Assessment of Glutathione Conjugation […]
euthanized. Brain, liver, kidneys, urine and bile were collected. Blood was centrifuged to obtain […]
fluorescence detector (G1321 FLD). […]
obtain a clear supernatant. The resulting supernatants were injected into the HPLC column.
(5 µm, 100-4.6 mm) preceded by a Chromolith Performance RP-18 pre-column (5 µm, 10-4.6 mm), which was isocratically eluted with acetonitrile/methanol/0.1% aqueous acetic acid (30/20/50, v/v/v) at a flow rate of 2 ml/min. For fluorescence detection, an excitation wavelength of 250 nm and an emission wavelength of 410 nm were used. MK571 eluted with a retention time of 10.1 min. Linear calibration curves were generated by spiking drug-free mouse plasma […]
average correlation coefficient: > 0.999).

[9] = Abcc1^(−/−) relative to wild-type mice ref 12, 13

T1 sequence (O35379 whole entry): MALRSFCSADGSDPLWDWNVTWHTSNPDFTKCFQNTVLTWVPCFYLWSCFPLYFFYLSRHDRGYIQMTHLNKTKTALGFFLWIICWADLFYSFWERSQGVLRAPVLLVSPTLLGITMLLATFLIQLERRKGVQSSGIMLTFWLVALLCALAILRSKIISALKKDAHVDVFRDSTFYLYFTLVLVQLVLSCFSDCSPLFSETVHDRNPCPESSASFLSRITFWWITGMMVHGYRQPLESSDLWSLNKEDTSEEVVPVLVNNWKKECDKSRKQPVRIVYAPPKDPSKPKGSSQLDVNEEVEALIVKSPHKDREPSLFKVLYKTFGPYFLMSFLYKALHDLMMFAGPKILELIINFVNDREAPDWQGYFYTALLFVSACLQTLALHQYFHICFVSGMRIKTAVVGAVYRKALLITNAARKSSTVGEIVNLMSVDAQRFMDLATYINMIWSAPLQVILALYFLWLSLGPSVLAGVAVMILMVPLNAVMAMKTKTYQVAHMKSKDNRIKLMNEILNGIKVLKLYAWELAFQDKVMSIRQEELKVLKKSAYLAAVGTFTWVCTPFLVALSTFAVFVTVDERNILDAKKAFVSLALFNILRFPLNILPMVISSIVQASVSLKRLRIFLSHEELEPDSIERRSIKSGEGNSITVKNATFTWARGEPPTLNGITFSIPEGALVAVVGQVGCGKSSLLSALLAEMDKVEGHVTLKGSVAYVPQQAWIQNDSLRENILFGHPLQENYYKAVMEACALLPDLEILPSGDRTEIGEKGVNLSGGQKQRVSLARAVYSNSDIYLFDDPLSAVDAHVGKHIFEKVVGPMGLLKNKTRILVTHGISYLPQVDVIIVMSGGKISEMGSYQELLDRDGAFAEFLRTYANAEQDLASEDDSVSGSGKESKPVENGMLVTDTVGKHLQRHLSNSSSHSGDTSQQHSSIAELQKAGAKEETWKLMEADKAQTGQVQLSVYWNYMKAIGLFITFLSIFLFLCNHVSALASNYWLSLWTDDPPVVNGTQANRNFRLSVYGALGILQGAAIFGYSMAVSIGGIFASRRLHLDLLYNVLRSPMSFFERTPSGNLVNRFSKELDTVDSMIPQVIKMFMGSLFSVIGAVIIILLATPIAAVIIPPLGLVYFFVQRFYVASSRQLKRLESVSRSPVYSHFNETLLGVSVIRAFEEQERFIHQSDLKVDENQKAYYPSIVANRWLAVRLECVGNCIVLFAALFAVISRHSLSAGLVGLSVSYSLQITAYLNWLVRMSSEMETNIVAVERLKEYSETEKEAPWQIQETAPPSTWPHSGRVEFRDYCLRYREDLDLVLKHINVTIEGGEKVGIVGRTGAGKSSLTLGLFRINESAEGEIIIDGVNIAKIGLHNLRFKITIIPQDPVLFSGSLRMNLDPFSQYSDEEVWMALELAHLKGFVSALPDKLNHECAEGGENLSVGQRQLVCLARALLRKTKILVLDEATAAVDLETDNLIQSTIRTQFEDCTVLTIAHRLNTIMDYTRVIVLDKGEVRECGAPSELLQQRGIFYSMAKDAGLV

CN(C)C(=O)CCS[C@H](SCCC(=O)O)c1cccc(/C=C/c2ccc3ccc(Cl)cc3n2)c1 (single isomer, unassigned) [(R)-enantiomer of MK571]
Apparent tissue unbound fraction [1]: 0.18

CN(C)C(=O)CCS[C@@H](SCCC(=O)O)c1cccc(/C=C/c2ccc3ccc(Cl)cc3n2)c1 (single isomer, unassigned) [(S)-enantiomer of MK571]
Apparent tissue unbound fraction [1]: 0.33

[11CH3]n1cnc2ncnc(Br)c21 [6-bromo-7-[^11C]methylpurine]
Decrease in kelimination, brain (Abcc4 [2]): 1.5 fold
Decrease in kelimination, kidneys (Abcc4 [2]): 1.4 fold
Decrease in kurine (Abcc4 [2]): 2.3 fold
Unchanged 6-bromo-7-[^11C]methylpurine in tissues and fluids ([3]; mouse, in vivo, 15 min): In none of the investigated tissues and fluids unchanged 6-bromo-7-[^11C]methylpurine could be detected
Plasma-to-blood ratio of radioactivity (Abcc1 [4]; Abcc1^(−/−) mice, venous blood at end of PET scan): 0.60 ± 0.04
Decrease in kurine (Abcc1 [4]; Abcc1^(−/−) vs wild-type mice): 3.4 fold
Decrease in plasma-to-blood ratio of radioactivity (Abcc1 [4]; Abcc1^(−/−) vs wild-type mice): 2.4 fold
Increase in blood AUC (Abcc1 [4]; Abcc1^(−/−) vs wild-type mice): 3.0 fold
Increase in kuptake, liver (Abcc1 [4]; Abcc1^(−/−) vs wild-type mice): 1.6 fold
Reduction in kelimination, blood (Abcc1 [4]; Abcc1^(−/−) vs wild-type mice): 3.6 fold
Reduction in kelimination, lungs (Abcc1 [4]; Abcc1^(−/−) vs wild-type mice): 5.7 fold
Reduction in kelimination,brain (Abcc1 [4]; Abcc1^(−/−) vs wild-type mice): 9.4 fold
Reduction in kelimination,brain (Abcc1 [4]; heterozygous Abcc1^(+/−) vs wild-type mice): 1.3 fold
kelimination,brain ([5]; vehicle-treated wild-type mice): 1.37 ± 0.27 h⁻¹
kuptake,brain ([5]; vehicle-treated wild-type mice): 0.113 ± 0.028 ml/min/g brain
Extraction ratio, liver ([5]; vehicle-treated wild-type mice, assuming hepatic blood flow 1.0 ml/min/g tissue): 0.21
Extraction ratio, kidneys ([5]; vehicle-treated wild-type mice, assuming renal blood flow 4.1 ml/min/g tissue): 0.18
Plasma-to-blood ratio of radioactivity ([5]; wild-type mice, venous blood at end of PET scan): 1.46 ± 0.14
Reduction in kelimination of radioactivity, brain (Abcc1 [6]; [9]): 9.3 fold
Reduction in kelimination of radioactivity, lungs (Abcc1 [6]; [9]): 17.2 fold
Conversion into glutathione conjugate in brain and lungs (Abcc1 [6]; mice, within 15 min after i.v. injection ref 12, 13): almost quantitatively converted into its glutathione conjugate

CN(C)C(=O)CCSC(SCCC(=O)O)c1cccc(/C=C/c2ccc3ccc(Cl)cc3n2)c1 (stereo not drawn) [MK571]
IC50 (ABCC4 [7]): 10 µM
IC50 (ABCC2): 4 µM
concentration at 120 min ([8]; C57BL/6J, kidney, Kidney unbound concentration of MK571, mice, from rat tissue unbound fraction of (R)-enantiomer): 98 µM
concentration at 120 min ([8]; C57BL/6J, kidney, Kidney unbound concentration of MK571, mice, from rat tissue unbound fraction of (S)-enantiomer): 180 µM
concentration at 120 min ([8]; C57BL/6J, kidney, Mean total MK571 concentration in the kidneys, wild-type mice, as restated in discussion): 544 µM
concentration at 120 min ([8]; kidney, MK571 concentration in kidneys, wild-type mice, approximately 120 min after 300 mg/kg i.p.): 544 ± 58 µM
concentration at 120 min ([8]; plasma, MK571 concentration in plasma, wild-type mice, approximately 120 min after 300 mg/kg i.p.): 251 ± 58 µM

Cn1cnc2ncnc(SC[C@H](NC(=O)CC[C@H](N)C(=O)O)C(=O)NCC(=O)O)c21 [S-(6-(7-[^11C]methylpurinyl))glutathione]
Percentage of S-(6-(7-[^11C]methylpurinyl))glutathione in bile ([3]; Abcc1^(−/−) mice): 79 ± 1%
Percentage of S-(6-(7-[^11C]methylpurinyl))glutathione in brain ([3]; Abcc1^(−/−) mice): 52 ± 0.4%
Percentage of S-(6-(7-[^11C]methylpurinyl))glutathione in kidney ([3]; Abcc1^(−/−) mice): 63 ± 1%
Percentage of S-(6-(7-[^11C]methylpurinyl))glutathione in liver ([3]; Abcc1^(−/−) mice): 32 ± 4%
Percentage of S-(6-(7-[^11C]methylpurinyl))glutathione in urine ([3]; Abcc1^(−/−) mice): 63 ± 3^a %
Percentage of S-(6-(7-[^11C]methylpurinyl))glutathione in plasma ([3]; Abcc1^(−/−) mice): 43 ± 2^a %
Percentage of S-(6-(7-[^11C]methylpurinyl))glutathione in bile ([3]; wild-type mice): 81 ± 5%
Percentage of S-(6-(7-[^11C]methylpurinyl))glutathione in brain ([3]; wild-type mice): 60 ± 8%
Percentage of S-(6-(7-[^11C]methylpurinyl))glutathione in kidney ([3]; wild-type mice): 58 ± 2%
Percentage of S-(6-(7-[^11C]methylpurinyl))glutathione in liver ([3]; wild-type mice): 37 ± 2%
Percentage of S-(6-(7-[^11C]methylpurinyl))glutathione in urine ([3]; wild-type mice): 77 ± 4%
Percentage of S-(6-(7-[^11C]methylpurinyl))glutathione in plasma ([3]; wild-type mice): 51 ± 2%
